Measurements from patent US10953209B2, “Treating tumors using TTFields combined with a PARP inhibitor” (Board of Regents of the University of Texas System, priority 2018, dated 2021).

Tests used:
Assay type in all cases: cell-based, Human
H157 cell line = test: Clonogenic survival, triple combination of TTFields, IR and Olaparib (CI); conditions: Olaparib 20 μM; for CI TTFields + Olap + 1 Gy: 1 Gy IR; for CI TTFields + Olap + 2 Gy: 2 Gy IR; for CI TTFields + Olap: no IR
Procedure: (§1) Experiments similar to those discussed above in connection with Table 2 and FIG. 6 were also conducted for H1299 and H157 cell lines, both with and without the PARP inhibitor Olaparib. More specifically, Olaparib (at a concentration of 20 μM) was added to cells, the cells were immediately exposed to TTFields for 24, […], or 72 h, removed, irradiated (at different doses of radiation), and immediately plated for survival.
(§2) The combination effect was evaluated using the Highest Single Agent approach and are listed in Table 4 and depicted in FIGS. 9A and 9B, which summarize the clonogenic assays for the different combinations of RT dosage and TTFields exposure time in the table, both with and without the Olaparib.
(§3) The inventors considered the combined effect of TTFields and Olaparib to be synergistic if the combination index (CI) was >1 and the P-value was <0.05 for a given time point and a given cell line.
(§4) Human NSCLC cell lines (H157, H4006, A549, H1299 and H1650) were purchased from American Tissue Culture Collection. All these cell lines were grown in RPMI medium supplemented with 10% (v/v) fetal bovine serum (Atlanta Biologicals, Flowery Branch, Ga., USA) and penicillin/[…] (final concentration 50 μg/ml; Sigma-Aldrich, St. Louis, Mo., U29SA). All cells were grown at 37° C. in a humidified incubator constantly supplied with 5% CO2.
(§5) The inventors used the inovitro system (NovoCure Ltd, Haifa, Israel) to generate TTFields that use two pairs of electrodes printed perpendicularly on the outer walls of a Petri dish composed of high dielectric constant ceramic (lead magnesium niobate-lead titanite (PMN-PT)). The transducer arrays were connected to a sinusoidal waveform generator that generate low-intensity electric fields at the desired frequencies in the medium as summarized in Table 1 above. The orientation of the TTFields was switched 90° every 1 s, thus covering the majority of the orientation axis of cell divisions, as previously described by Kirson et al. Plate temperature was maintained at 37° C. by placing the plates in a refrigerated incubator where the temperature was maintained at 19° C. to dissipate the heat generated by the inovitro system. The temperature was measured by 2 thermistors (Omega Engineering, Stamford, Conn., USA) attached to the ceramic walls. All cell suspensions were grown on a cover slip inside the inovitro dish (NovoCure Ltd) and treated with TTFields for the times indicated in the figure legends.
(§6) To study the effect of radiation sensitivity on NSCLC cells, exponentially growing cells were treated with IR using a Mark II Cs irradiator (J L Shepherd and Associates) at a dose rate of 3.47 Gy/min, followed by immediate application of TTFields for 24, 48 and 72 h. Cells were then re-seeded into 60 mm dishes and incubated for up to 2 weeks. Colonies containing 50 or more cells were considered viable. The data are presented as the mean±S.E.M. of three independent experiments. The radiosensitization effect of TTFields was evaluated according to The Highest Single Agent approach by calculating the CI as given below. CI=SFIR×SFTTFields)/SFIR+TTFields Where SF=Survivalfraction
(§7) For the Triple Combination of TTFields, IR, and Olaparib, CI was calculated using the following equations: CI(TTFields+olap)=(SFOlap×SFTTFields)/SFOlap+TTFields CI(TTFields+1Gy)=(SF1Gy×SFTTFields)/SF1Gy+TTFields CI(TTFields+2Gy)=(SF2Gy×SFTTFields)/SF2Gy+TTFields CI(TTFields+olap+1Gy)=(SF1Gy+Olap×SFTTFields)/SFOlap+TTFields+1Gy CI(TTFields+olap+2Gy)=(SF2Gy+Olap×SFTTFields)/SFOlap+TTFields+2Gy Where SF=Survival fraction

H1299 cell line [1] = test: as above; conditions: Olaparib 20 μM; for CI TTFields + Olap + 1 Gy: 1 Gy IR; for CI TTFields + Olap + 2 Gy: 2 Gy IR; for CI TTFields + Olap: no IR
Procedure: as §1, §2, §3, §4, §5, §6, §7

H1299 cell line [2] = test: as above; conditions: TTFields 48 h, Olaparib 20 μM
H4006 NSCLC cell line = test: Clonogenic survival, TTFields + Olaparib combination (Highest Single Agent CI); conditions: for CI TTFields + Olap 12.5 μM: Olaparib 12.5 μM; for CI TTFields + Olap 12.5 μM / CI TTFields + Olap 25 μM / CI TTFields + Olap 50 μM: CI>1 = synergistic; for CI TTFields + Olap 25 μM: Olaparib 25 μM; for CI TTFields + Olap 50 μM: Olaparib 50 μM
Procedure: (§8) Experiments similar to those discussed above in connection with Table 2 and FIG. 6 were also conducted, but with exposure to IR replaced with exposure to three different concentrations (either 10, 20, and 40 μM; or 12.5, 25, and 50 μM, depending on the cell line) of the PARP inhibitor Olaparib. More specifically, Olaparib at each of the different concentrations was added to cells and the cells were then exposed to TTFields for 30 or 60 h (or not exposed to TTFields for the control) and immediately plated for survival. Baseline growth curves for exposing the various NSCLC cell lines to different concentrations of Olaparib without TTFields are depicted in FIG. 7. Clonogenic assays are depicted in FIG. 8 for the different combinations of drug concentration and TTFields exposure time in Table 3.
as §3, §4, §5, §6
(§9) The combination effect was considered enhanced/synergistic when CI>1, additive when CI=1. Statistical significance for a positive effect was determined by the P-value of a two-way ANOVA multiple comparison statistical test comparing the combination (TTFields plus IR) to the single agent showing the greatest cell killing for a given dose and time after IR.

H1299 NSCLC cell line = test: as above; conditions: for CI TTFields + Olap 10 μM: Olaparib 10 μM; for CI TTFields + Olap 10 μM / CI TTFields + Olap 20 μM / CI TTFields + Olap 40 μM: CI>1 = synergistic; for CI TTFields + Olap 20 μM: Olaparib 20 μM; for CI TTFields + Olap 40 μM: Olaparib 40 μM
Procedure: as §8, §3, §4, §5, §6, §9

A549 NSCLC cell line = test: as above; conditions: for CI TTFields + Olap 12.5 μM: Olaparib 12.5 μM; for CI TTFields + Olap 12.5 μM / CI TTFields + Olap 25 μM / CI TTFields + Olap 50 μM: CI>1 = synergistic; for CI TTFields + Olap 25 μM: Olaparib 25 μM; for CI TTFields + Olap 50 μM: Olaparib 50 μM
Procedure: as §8, §3, §4, §5, §6, §9

H157 NSCLC cell line = test: as above; conditions: for CI TTFields + Olap 10 μM: Olaparib 10 μM; for CI TTFields + Olap 10 μM / CI TTFields + Olap 20 μM / CI TTFields + Olap 40 μM: CI>1 = synergistic; for CI TTFields + Olap 20 μM: Olaparib 20 μM; for CI TTFields + Olap 40 μM: Olaparib 40 μM
Procedure: as §8, §3, §4, §5, §6, §9

[3] = synergistic if CI >1 and P <0.05
[4] = all tested concentrations, synergistic if CI >1 and P <0.05

In the case of `O=C(c1cc(Cc2n[nH]c(=O)c3ccccc23)ccc1F)N1CCN(C(=O)C2CC2)CC1` [Olaparib], the “combined effect of TTFields, IR, and Olaparib on cell death” value (H157 cell line; [3]) is reported as “synergistic”, the “CI TTFields + Olap + 1 Gy” value (H157 cell line; TTFields 24 h) is reported as 2.25 and the “CI TTFields + Olap + 2 Gy” value (H157 cell line; TTFields 24 h) is reported as 2.36. For the same molecule, the “CI TTFields + Olap” value (H157 cell line; TTFields 24 h) was 0.97, the “CI TTFields + Olap + 1 Gy” value (H157 cell line; TTFields 48 h) was 2.12 and the “CI TTFields + Olap + 2 Gy” value (H157 cell line; TTFields 48 h) was 2.07. For the same molecule, the “CI TTFields + Olap” value (H157 cell line; TTFields 48 h) was 1.02, the “CI TTFields + Olap + 1 Gy” value (H157 cell line; TTFields 72 h) was 1.66 and the “CI TTFields + Olap + 2 Gy” value (H157 cell line; TTFields 72 h) was 2.57. The “CI TTFields + Olap” value (H157 cell line; TTFields 72 h) was 1.49, the “combined effect of TTFields, IR, and Olaparib on cell death” value (H1299 cell line [1]; [3]) was “synergistic” and the “CI TTFields + Olap + 1 Gy” value (H1299 cell line [1]; TTFields 24 h) was 1.64. For the same molecule, the “CI TTFields + Olap + 2 Gy” value (H1299 cell line [1]; TTFields 24 h) was 1.96, the “CI TTFields + Olap” value (H1299 cell line [1]; TTFields 24 h) was 1.03 and the “CI TTFields + Olap + 1 Gy” value (H1299 cell line [1]; TTFields 72 h) was 1.89. For the same molecule, the “CI TTFields + Olap + 2 Gy” value (H1299 cell line [1]; TTFields 72 h) was 3.08, the “CI TTFields + Olap” value (H1299 cell line [1]; TTFields 72 h) was 1.06 and the “CI TTFields + Olap + 1 Gy” value (H1299 cell line [2]; 1 Gy IR) was 1.70. For the same molecule, the “CI TTFields + Olap + 2 Gy” value (H1299 cell line [2]; 2 Gy IR) was 2.20, the “CI TTFields + Olap” value (H1299 cell line [2]; no IR) was 1.02 and the “CI TTFields + Olap 12.5 μM” value (H4006 NSCLC cell line; TTFields 30 h) was 1.17. For the same molecule, the “CI TTFields + Olap 25 μM” value (H4006 NSCLC cell line; TTFields 30 h) was 1.17, the “CI TTFields + Olap 50 μM” value (H4006 NSCLC cell line; TTFields 30 h) was 1.32 and the “CI TTFields + Olap 12.5 μM” value (H4006 NSCLC cell line; TTFields 60 h) was 1.13. The “CI TTFields + Olap 25 μM” value (H4006 NSCLC cell line; TTFields 60 h) was 1.34, the “CI TTFields + Olap 50 μM” value (H4006 NSCLC cell line; TTFields 60 h) was 1.96 and the “combined effect of TTFields and Olaparib on cell death” value (H4006 NSCLC cell line; [4]) was “synergistic”. For the same molecule, the “CI TTFields + Olap 10 μM” value (H1299 NSCLC cell line; TTFields 30 h) was 1.12, the “CI TTFields + Olap 20 μM” value (H1299 NSCLC cell line; TTFields 30 h) was 1.42 and the “CI TTFields + Olap 40 μM” value (H1299 NSCLC cell line; TTFields 30 h) was 1.9. For the same molecule, the “CI TTFields + Olap 10 μM” value (H1299 NSCLC cell line; TTFields 60 h) was 1.4, the “CI TTFields + Olap 20 μM” value (H1299 NSCLC cell line; TTFields 60 h) was 1.5 and the “CI TTFields + Olap 40 μM” value (H1299 NSCLC cell line; TTFields 60 h) was 3.7. For the same molecule, the “combined effect of TTFields and Olaparib on cell death” value (H1299 NSCLC cell line; [4]) was “synergistic”, the “CI TTFields + Olap 12.5 μM” value (A549 NSCLC cell line; TTFields 30 h) was 1.12 and the “CI TTFields + Olap 25 μM” value (A549 NSCLC cell line; TTFields 30 h) was 1.46. The “CI TTFields + Olap 50 μM” value (A549 NSCLC cell line; TTFields 30 h) was 1.32, the “CI TTFields + Olap 12.5 μM” value (A549 NSCLC cell line; TTFields 60 h) was 1.39 and the “CI TTFields + Olap 25 μM” value (A549 NSCLC cell line; TTFields 60 h) was 1.716. For the same molecule, the “CI TTFields + Olap 50 μM” value (A549 NSCLC cell line; TTFields 60 h) was 1.53, the “combined effect of TTFields and Olaparib on cell death” value (A549 NSCLC cell line; [4]) was “synergistic” and the “CI TTFields + Olap 10 μM” value (H157 NSCLC cell line; TTFields 30 h) was 1.3. The “CI TTFields + Olap 20 μM” value (H157 NSCLC cell line; TTFields 30 h) was 1.44, the “CI TTFields + Olap 40 μM” value (H157 NSCLC cell line; TTFields 30 h) was 1.78 and the “CI TTFields + Olap 10 μM” value (H157 NSCLC cell line; TTFields 60 h) was 1.63. For the same molecule, the “CI TTFields + Olap 20 μM” value (H157 NSCLC cell line; TTFields 60 h) was 1.43, the “CI TTFields + Olap 40 μM” value (H157 NSCLC cell line; TTFields 60 h) was 1.68 and the “combined effect of TTFields and Olaparib on cell death” value (H157 NSCLC cell line; [4]) was “synergistic”.
